Molecules are shown by their SMILES.

The series in a line: solubility of the compound in common solvents. Type of series: physicochemical. As to conditions: 25-30° C.; for solubility in DMF: N,N-dimethylformamide; for solubility in i-PrOAc: isopropyl acetate; for solubility in MTBE: methyl tert-butyl ether. The procedure:
The solubility of the compound of the present invention in common solvents was investigated (25-30° C.), and the results are shown in Table 1. It can be seen from Table 1 that the compound of the present invention has good solubility in all of heptane, isopropyl acetate (i-PrOAc), methyl tert-butyl ether (MTBE) and N,N-dimethylformamide (DMF), and particularly, the solubility in N,N-dimethylformamide is much higher than Comparative Examples.

As for `CCCCCCCCCCCCCOc1ccc(CN(CCOCCOc2ccc(C(N)c3ccccc3)cc2)C(=O)c2cc(OCCCCCCCCC)c(OCCCCCCCCC)c(OCCCCCCCCC)c2)cc1OCCCCCCCCCCCCC` (stereo not drawn) [DPA-029], the “solubility in DMSO” value was under 1%, the “solubility in MeOH” value is given as under 1%, the “solubility in DMF” value is on record as over 100% and the “solubility in Heptane” value is given as over 100%. For the same molecule, the “solubility in i-PrOAc” value was over 100% and the “solubility in MTBE” value is on record as over 100%.

On to `CCCCCCCCCCCCCOc1ccc(CN(CC(=O)NCCOCCOc2ccc(C(N)c3ccccc3)cc2)C(=O)CC(C)CC(C)(C)C)cc1OCCCCCCCCCCCCC` (stereo not drawn) [DPA-030, 4-(2-(2-(2-(N″-3,4-di(isomeric tridecyloxy)-benzyl)-isononanoamido)-acetamido)-ethoxy)-ethoxy-benzhydrylamine], for which the “solubility in DMSO” value is under 1%, the “solubility in MeOH” value is listed as under 1%, the “solubility in DMF” value was over 40% and the “solubility in Heptane” value is listed as over 40%. In addition, the “solubility in i-PrOAc” value is reported as over 40% and the “solubility in MTBE” value is reported as over 40%.

As for `CCCCCCCCCCCCCOc1ccc(CN(CC(=O)NCCOCCOc2ccc(C(N)c3ccccc3)cc2)C(=O)c2cc(OCCCCCCCCC)c(OCCCCCCCCC)c(OCCCCCCCCC)c2)cc1OCCCCCCCCCCCCC` (stereo not drawn) [DPA-031, 4-(2-(2-(2-(N″-3,4-di(isomeric tridecyloxy)-benzyl)-3,4,5-tri(isononyloxy)-benzamido)-acetamido)-ethoxy)-ethoxy-benzhydrylamine], the “solubility in DMSO” value is recorded as under 1%, the “solubility in MeOH” value is on record as under 1%, the “solubility in DMF” value was over 100% and the “solubility in Heptane” value is reported as over 50%. For the same molecule, the “solubility in i-PrOAc” value is over 100% and the “solubility in MTBE” value is listed as over 100%.

For `CCCCCCCCCCCCCOc1cc(C(=O)NCCOCCOc2ccc(C(O)(c3ccccc3)c3ccccc3)cc2)cc(OCCCCCCCCCCCCC)c1OCCCCCCCCCCCCC` [DPA-032], the “solubility in DMSO” value was under 1%, the “solubility in MeOH” value was under 1%, the “solubility in DMF” value is on record as over 40% and the “solubility in Heptane” value is over 10%. Moreover, the “solubility in i-PrOAc” value is over 10% and the “solubility in MTBE” value is over 10%.

Turning to `CCCCCCCCCCCCCOc1cc(C(=O)NCCOCCOc2ccc(C(O)(c3ccccc3)c3ccccc3Cl)cc2)cc(OCCCCCCCCCCCCC)c1OCCCCCCCCCCCCC` (stereo not drawn) [DPA-033], the “solubility in DMSO” value is given as under 1%, the “solubility in MeOH” value is under 1%, the “solubility in DMF” value is reported as over 40% and the “solubility in Heptane” value is on record as over 30%. Further, the “solubility in i-PrOAc” value was over 50% and the “solubility in MTBE” value is over 50%.

`CCCCCCCCCCCCCOc1cc(C(=O)NCCOCCOc2ccc(C(O)(c3ccccc3)c3ccc(Cl)cc3)cc2)cc(OCCCCCCCCCCCCC)c1OCCCCCCCCCCCCC` (stereo not drawn) [DPA-034]: the “solubility in DMSO” value is under 1%, the “solubility in MeOH” value was under 1%, the “solubility in DMF” value is listed as over 40% and the “solubility in Heptane” value is reported as over 30%. In addition, the “solubility in i-PrOAc” value is over 50% and the “solubility in MTBE” value is over 50%.

As to `CC(C)CCCC(C)CCCC(C)CCCC(C)CCOc1ccc(C(N)c2ccc(OCCC(C)CCCC(C)CCCC(C)CCCC(C)C)cc2)cc1` (stereo not drawn) [REF-001, 4,4′-di(dihydrophytanyloxy)-benzhydrylamine, reference compound], the “solubility in DMSO” value was under 1%, the “solubility in MeOH” value was under 1%, the “solubility in DMF” value is on record as over 0.1% and the “solubility in Heptane” value is over 50%. Further, the “solubility in i-PrOAc” value is over 100% and the “solubility in MTBE” value was over 100%.

Turning to `CC(C)CCCC(C)CCCC(C)CCCC(C)CCOc1cc(COc2ccc(C(N)c3ccccc3)cc2)cc(OCCC(C)CCCC(C)CCCC(C)CCCC(C)C)c1OCCC(C)CCCC(C)CCCC(C)CCCC(C)C` (stereo not drawn) [REF-002, reference compound], the “solubility in DMSO” value is under 1%, the “solubility in MeOH” value is under 1%, the “solubility in DMF” value is reported as over 0.1% and the “solubility in Heptane” value is recorded as over 100%. For the same molecule, the “solubility in i-PrOAc” value is given as over 100% and the “solubility in MTBE” value is recorded as over 100%.

These data come from patent publication US12172946B2, “Compound containing diphenylmethane structure and use thereof” (GUANGZHOU TROJAN PHARMATEC LTD., priority 2019, dated 2024).
